Among the data in the supplement of paper PMC10307832 are relative viability values, retold here.

Common to all, as to assay: relative viability (nuclei count vs DMSO), 5 days (fraction); higher = more cells survive
Compound in assay [1]: O=C(c1cc(Cc2n[nH]c(=O)c3ccccc23)ccc1F)N1CCN(C(=O)C2CC2)CC1 [Olaparib]
Summed up:
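Viability is treated-well nuclei as a fraction of vehicle-well nuclei, reported as the median across plates. Before counting, lung cancer cell lines were kept overnight at 37 °C in 1536-well plates, pinned with five √10-spaced library-drug doses on vehicle-anchored plates, and left 5 days without medium change, then fixed, permeabilised and Hoechst-stained in one step, imaged at 4× and counted by MetaXpress. A plate passed only if control CV was below 25% and at least one doubling occurred.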

Compound in assay [2]: C[C@@H](Oc1cc(-c2cnn(C3CCNCC3)c2)cnc1N)c1c(Cl)ccc(F)c1Cl [Crizotinib] + C[C@]1(O)C[C@@H](c2nc(-c3ccc4ccc(-c5ccccc5)nc4c3)c3c(N)nccn32)C1 [Linsitinib] (partner 1 µM)
Summed up:
(§1)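 The day after seeding in 1536-well plates, lung cancer cell lines were treated by pin tool with a single drug, or with a fixed anchor-drug dose together with five library-drug doses (not always all listed) in √10 steps. After 5 days, a combined fix-and-stain solution (final 0.05% Triton X-100, 1% formaldehyde, 1 ug/ml Hoechst) was added. Nuclei counted on 4× images gave relative viability as treated counts over vehicle counts, reported as the median of duplicate plates.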

Compound in assay [3]: C[C@@H](Oc1cc(-c2cnn(C3CCNCC3)c2)cnc1N)c1c(Cl)ccc(F)c1Cl [Crizotinib] + CC(C)C[C@H](NC(=O)[C@H](Cc1ccccc1)NC(=O)c1cnccn1)B(O)O [Bortezomib] (partner 0.002 µM)
In a few lines: as §1

Consider NCI-H1703, for which the relative viability in assay [1] (0.08 µM) worked out at 1.1; in assay [1] (0.253 µM) it was 0.826; in assay [1] (2.53 µM) it was 0.983; in assay [1] (8 µM), 0.974; in assay [1] (8 µM, anchor plate), 0.453; in assay [2] (first compound 0.01 µM) it was 0.773. The relative viability in assay [2] (first compound 0.03162 µM) came out at 0.852; in assay [2] (first compound 0.1 µM) it was 0.727; in assay [2] (first compound 0.3162 µM) it was 0.777; in assay [2] (first compound 1 µM), 0.654; in assay [3] (first compound 0.01 µM), 0.365; in assay [3] (first compound 0.03162 µM), 0.301. For the same cell line, the relative viability in assay [3] (first compound 0.1 µM) was 0.226; in assay [3] (first compound 0.3162 µM), 0.319; in assay [3] (first compound 1 µM) it was 0.322.

Take NCI-H1734: the relative viability is 1.06 in assay [1] (0.08 µM); 0.935 in assay [1] (0.253 µM); 0.862 in assay [1] (2.53 µM); 0.726 in assay [1] (8 µM); 0.635 in assay [1] (8 µM, anchor plate); 0.888 in assay [2] (first compound 0.01 µM). Further, the relative viability in assay [2] (first compound 0.03162 µM) came to 0.843; in assay [2] (first compound 0.1 µM) it was 0.851; in assay [2] (first compound 1 µM), 0.82; in assay [3] (first compound 0.01 µM), 1.01; in assay [3] (first compound 0.03162 µM), 0.926; in assay [3] (first compound 0.1 µM), 0.87. In addition, the relative viability in assay [3] (first compound 1 µM) came to 1.07.

Regarding NCI-H1755, the relative viability came out at 1.08 in assay [1] (0.08 µM); 0.89 in assay [1] (0.253 µM); 1.05 in assay [1] (2.53 µM); 0.939 in assay [1] (8 µM); 0.881 in assay [1] (8 µM, anchor plate); 0.872 in assay [2] (first compound 0.01 µM). Besides, the relative viability in assay [2] (first compound 0.1 µM) was 1.07; in assay [2] (first compound 0.3162 µM) it was 0.964; in assay [2] (first compound 1 µM), 0.978; in assay [3] (first compound 0.03162 µM), 0.964; in assay [3] (first compound 0.1 µM), 0.923; in assay [3] (first compound 0.3162 µM) it was 0.87. In addition, the relative viability in assay [3] (first compound 1 µM) was 0.991.

As to NCI-H1792, the relative viability in assay [1] (0.08 µM) was determined as 0.923; in assay [1] (0.253 µM), 0.725; in assay [1] (2.53 µM), 0.773; in assay [1] (8 µM), 0.605; in assay [1] (8 µM, anchor plate), 0.419; in assay [2] (first compound 0.01 µM) it was 0.519. In addition, the relative viability in assay [2] (first compound 0.03162 µM) stood at 0.558; in assay [2] (first compound 0.1 µM), 0.586; in assay [2] (first compound 0.3162 µM) it was 0.473; in assay [2] (first compound 1 µM) it was 0.559; in assay [3] (first compound 0.01 µM) it was 0.955; in assay [3] (first compound 0.03162 µM), 0.983. Besides, the relative viability in assay [3] (first compound 0.1 µM) was found to be 1.01; in assay [3] (first compound 0.3162 µM), 0.931; in assay [3] (first compound 1 µM), 0.917.

Consider NCI-H1915, for which the relative viability in assay [1] (0.08 µM) is 1.02; in assay [1] (0.253 µM), 0.892; in assay [1] (2.53 µM), 0.779; in assay [1] (8 µM), 0.559; in assay [1] (8 µM, anchor plate) it was 0.269; in assay [2] (first compound 0.01 µM), 1.02. Moreover, the relative viability came out at 1.09 in assay [2] (first compound 0.03162 µM); 1.1 in assay [2] (first compound 0.1 µM); 1.1 in assay [2] (first compound 1 µM); 0.98 in assay [3] (first compound 0.01 µM); 0.921 in assay [3] (first compound 0.03162 µM); 1.06 in assay [3] (first compound 0.1 µM). For the same cell line, the relative viability in assay [3] (first compound 1 µM) was found to be 0.963.

As to NCI-H1975, the relative viability in assay [1] (0.08 µM) is 0.985; in assay [1] (0.253 µM) it was 0.919; in assay [1] (2.53 µM) it was 0.912; in assay [1] (8 µM), 0.901; in assay [1] (8 µM, anchor plate), 0.789; in assay [2] (first compound 0.01 µM), 0.926. In addition, the relative viability in assay [2] (first compound 0.03162 µM) is 1.05; in assay [2] (first compound 0.1 µM), 0.91; in assay [2] (first compound 0.3162 µM), 1.07; in assay [2] (first compound 1 µM) it was 1.01; in assay [3] (first compound 0.01 µM) it was 0.317; in assay [3] (first compound 0.03162 µM) it was 0.362. Besides, the relative viability in assay [3] (first compound 0.1 µM) amounted to 0.315; in assay [3] (first compound 0.3162 µM), 0.373; in assay [3] (first compound 1 µM), 0.404.

In the case of NCI-H1993, the relative viability in assay [1] (0.08 µM) was 0.909; in assay [1] (0.253 µM), 0.956; in assay [1] (2.53 µM), 0.978; in assay [1] (8 µM), 1.01; in assay [1] (8 µM, anchor plate) it was 1.12; in assay [2] (first compound 0.01 µM) it was 0.711. The relative viability in assay [2] (first compound 0.03162 µM) was found to be 0.729; in assay [2] (first compound 0.1 µM), 0.71; in assay [2] (first compound 0.3162 µM) it was 0.76; in assay [2] (first compound 1 µM) it was 0.71; in assay [3] (first compound 0.01 µM) it was 0.937; in assay [3] (first compound 0.03162 µM), 1.05. Moreover, the relative viability in assay [3] (first compound 0.1 µM) turned out to be 0.833; in assay [3] (first compound 0.3162 µM) it was 0.899; in assay [3] (first compound 1 µM), 0.76.
